This note sets out measurements from ChEMBL document CHEMBL5360661, “Structure-Activity Relationship Study of 1H-Pyrrole-3-carbonitrile Derivatives as STING Receptor Agonists” (ACS Med Chem Lett, 2023).

Where only a bound is given, the exact number is not on record here.

The species named for experiment [1] is Homo sapiens. Kind of experiment: Binding affinity to recombinant human STING R232H variant C-terminal domain (139 to 378 residues) expressed in Escherichia coli BL21 (DE3) cells assessed as thermal stabilization by measuring change in melting temperature at 50 uM incubated at 25 to 95 degreeC for 45 mins by SYPRO orange dye based fluorescence analysis.
For experiment [2], the target named is T1, Stimulator of interferon genes protein (Homo sapiens, UniProt Q86WV6). Briefly: Agonist activity at STING in PMA-differentiated wildtype human THP1-Blue ISG cells harboring IRF-inducible SEAP reporter construct incubated for 24 hrs by QUANTI-Blue assay. In kind it is cell-based.
Target sequence in this assay (Q86WV6 whole entry): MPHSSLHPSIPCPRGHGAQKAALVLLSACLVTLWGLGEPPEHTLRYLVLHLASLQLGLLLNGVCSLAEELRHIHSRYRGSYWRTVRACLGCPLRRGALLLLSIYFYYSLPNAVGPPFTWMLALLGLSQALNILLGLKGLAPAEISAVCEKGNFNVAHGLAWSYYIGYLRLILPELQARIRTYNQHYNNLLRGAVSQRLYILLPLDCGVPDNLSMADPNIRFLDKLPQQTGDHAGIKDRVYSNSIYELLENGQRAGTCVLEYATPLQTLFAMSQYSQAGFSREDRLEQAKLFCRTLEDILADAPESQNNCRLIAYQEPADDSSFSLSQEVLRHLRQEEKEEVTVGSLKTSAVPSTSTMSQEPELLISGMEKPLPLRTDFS
For experiment [3], the target named is T2, Stimulator of interferon genes protein (Mus musculus) (UniProt Q3TBT3).
T2 sequence (whole entry): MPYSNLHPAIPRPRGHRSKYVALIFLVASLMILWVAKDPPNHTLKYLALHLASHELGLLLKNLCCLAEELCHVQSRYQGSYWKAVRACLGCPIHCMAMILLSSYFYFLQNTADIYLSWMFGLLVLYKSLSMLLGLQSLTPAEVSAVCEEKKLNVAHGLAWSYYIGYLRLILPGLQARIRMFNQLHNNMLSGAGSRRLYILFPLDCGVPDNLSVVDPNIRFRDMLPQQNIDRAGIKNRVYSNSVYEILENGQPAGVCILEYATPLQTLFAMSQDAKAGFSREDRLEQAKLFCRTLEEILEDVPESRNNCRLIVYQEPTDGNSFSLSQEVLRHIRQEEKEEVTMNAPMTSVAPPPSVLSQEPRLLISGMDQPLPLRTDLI
Kind of experiment: Binding affinity to recombinant 6-His tagged mouse STING C-terminal domain (144 to 378 residues) expressed in Escherichia coli BL21 (DE3) cells assessed as thermal stabilization by measuring change in melting temperature at 50 uM incubated at 25 to 95 degreeC for 45 mins by SYPRO orange dye based fluorescence analysis.

The species entered for experiment [4] is Homo sapiens. Briefly: Binding affinity to recombinant human STING R293Q variant C-terminal domain (139 to 378 residues) expressed in Escherichia coli BL21 (DE3) cells assessed as thermal stabilization by measuring change in melting temperature at 50 uM incubated at 25 to 95 degreeC for 45 mins by SYPRO orange dye based fluorescence analysis.
The nature of experiment [5]: Competitive inhibition of 5-FAM labelled diABZI binding to recombinant human STING G230A and R293Q variant C-terminal domain (139 to 378 residues) expressed in Escherichia coli BL21 (DE3) cells incubated for 10 mins by fluorescence polarization assay.
Experiment [6] in a line: Competitive inhibition of 5-FAM labelled diABZI binding to recombinant human STING R232H variant C-terminal domain (139 to 378 residues) expressed in Escherichia coli BL21 (DE3) cells incubated for 10 mins by fluorescence polarization assay. On the technique in general: In fluorescence polarisation assays a small probe gives low polarisation when free and higher when bound to something large.

The species named for experiment [7] is Homo sapiens. Kind of experiment: Binding affinity to recombinant human STING G230A and R293Q variant C-terminal domain (139 to 378 residues) expressed in Escherichia coli BL21 (DE3) cells assessed as thermal stabilization by measuring change in melting temperature at 50 uM incubated at 25 to 95 degreeC for 45 mins by SYPRO orange dye based fluorescence analysis.

A short description of experiment [8]: Competitive inhibition of 5-FAM labelled diABZI binding to recombinant human STING R293Q variant C-terminal domain (139 to 378 residues) expressed in Escherichia coli BL21 (DE3) cells incubated for 10 mins by fluorescence polarization assay.
Experiment [9] concerns the target T3, Stimulator of interferon genes protein (Mus musculus, UniProt Q3TBT3).
T3 sequence (Q3TBT3 whole entry): T2 sequence (whole entry)
Kind of experiment: Competitive inhibition of 5-FAM labelled diABZI binding to recombinant 6-his tagged mouse STING C-terminal domain (144 to 378 residues) expressed in Escherichia coli BL21 (DE3) cells incubated for 10 mins by fluorescence polarization assay.

The target in experiment [10] is T1, Stimulator of interferon genes protein. Kind of experiment: Competitive inhibition of 5-FAM labelled diABZI binding to recombinant wildtype human STING R232 variant C-terminal domain (139 to 378 residues) expressed in Escherichia coli BL21 (DE3) cells incubated for 10 mins by fluorescence polarization assay.
Target sequence in this assay (Q86WV6 whole entry, looked up, change not shown): as the sequence (Q86WV6 whole entry) above
Experiment [11] has as its system Stimulator of interferon genes protein (Homo sapiens), Q86WV6 [UNDEFINED MUTATION]. Kind of experiment: Binding affinity to recombinant wildtype human STING R232 variant C-terminal domain (139 to 378 residues) expressed in Escherichia coli BL21 (DE3) cells assessed as thermal stabilization by measuring change in melting temperature at 50 uM incubated at 25 to 95 degreeC for 45 mins by SYPRO orange dye based fluorescence analysis.

Stimulator of interferon genes protein (Homo sapiens), Q86WV6 [UNDEFINED MUTATION], sequence (Q86WV6 whole entry, looked up, stated change not applied, the tested form may be a part): as the sequence (Q86WV6 whole entry) above

As for `CC#Cc1cc(NC(=O)c2ccc(-n3ccc(C#N)c3)nn2)c(C(=O)O)cc1F`, the ΔTm (as a rule, the change in melting temperature against a reference sample) in the experiment listed under Homo sapiens [1] was 0.5 °C. Besides, in experiment [2], the EC50 – broadly, the concentration giving half of the maximal effect – stood at 35 µM.

Regarding `COc1cc(NC(=O)c2ccc(-n3ccc(C#N)c3)nn2)c(C(=O)O)cc1F`, in the experiment filed under Homo sapiens [1], the ΔTm stood at 4 °C. Besides, a half-maximal effect in [2] (EC50) was put at 9.75 µM.

Take `N#Cc1ccn(-c2ccc(C(=O)Nc3cc(F)ccc3C(=O)O)nn2)c1`: the ΔTm in the experiment listed under Homo sapiens [1] stood at 0 °C. Also, in experiment [2], the EC50 turned out to be 48.1 µM.

As for `N#Cc1ccn(-c2ccc(C(=O)Nc3ccc(F)cc3C(=O)O)nn2)c1`, the ΔTm in the experiment filed under Homo sapiens [1] stood at 0.5 °C. In experiment [2], this compound returned an EC50 greater than 100 µM.

As to `N#Cc1ccn(-c2ccc(C(=O)Nc3cc(Cl)c(Br)cc3C(=O)O)nn2)c1`, the ΔTm in the experiment filed under Homo sapiens [1] was found to be 6.5 °C. The compound also yielded an EC50 in experiment [2] of 5.11 µM.

Take `N#Cc1ccn(-c2ccc(C(=O)Nc3cc(C4CC4)c(F)cc3C(=O)O)nn2)c1`: the ΔTm in the experiment listed under Homo sapiens [1] was determined as 1 °C. In [2], this compound had an EC50 of 29.5 µM.

As for `O=C(Nc1cc(F)c(F)cc1C(=O)O)c1ccc(-n2ccnc2)nn1`, the ΔTm in experiment [3] turned out to be 10 °C; in the experiment listed under Homo sapiens [4], 7.5 °C; in the experiment filed under Homo sapiens [1], 8.5 °C; in the experiment filed under Homo sapiens [7] it was 14 °C. Further, the IC50 (in general, the concentration that gives 50% inhibition) in experiment [5] amounted to 0.73 µM; in experiment [6] it was 4.89 µM; in [8], 5.54 µM; in [9], 2.2 µM.

`N#Cc1ccn(-c2ccc(C(=O)Nc3cc(C#CC4CC4)c(F)cc3C(=O)O)nn2)c1`: in the experiment listed under Homo sapiens [1], the ΔTm is -0.5 °C. This compound showed an EC50 in [2] of 69.8 µM.

For `C=Cc1cc(NC(=O)c2ccc(-n3ccc(C#N)c3)nn2)c(C(=O)O)cc1F`, the ΔTm in the experiment filed under Homo sapiens [1] turned out to be 4.5 °C. For the same compound, the midpoint of the response in experiment [2], the EC50, lay at 19.8 µM.

Turning to `N#Cc1ccn(-c2ccc(C(=O)Nc3cc(Br)c(F)cc3C(=O)O)nn2)c1`, in the experiment filed under Homo sapiens [1], the ΔTm came to 6 °C. Besides, it took 4.86 µM to reach a half-maximal effect in experiment [2] (EC50).

For the compound `CCc1cc(C(=O)O)c(NC(=O)c2ccc(-n3ccc(C#N)c3)nn2)cc1F`, the ΔTm in the experiment listed under Homo sapiens [1] worked out at 0.5 °C. Moreover, the concentration for a half-maximal effect (EC50) in experiment [2] came to 34.9 µM.

Take `Cc1cc(NC(=O)c2ccc(-n3ccc(C#N)c3)nn2)c(C(=O)O)cc1F`: the ΔTm in the experiment listed under Homo sapiens [1] was 1.5 °C. Moreover, the concentration for a half-maximal effect (EC50) in [2] is 46 µM.

As for `N#Cc1ccn(-c2ccc(C(=O)Nc3cc(F)c(Br)cc3C(=O)O)nn2)c1`, the ΔTm in the experiment listed under Homo sapiens [1] came out at 1 °C. A half-maximal effect in experiment [2] (EC50) was put at 44.2 µM.

On to `N#Cc1ccn(-c2ccc(C(=O)Nc3cc(Br)c(Br)cc3C(=O)O)nn2)c1`, for which, in the experiment listed under Homo sapiens [1], the ΔTm was 6.5 °C. Moreover, the EC50 in [2] was determined as 6.33 µM.

On to `CCCn1c(NC(=O)c2cc(C)nn2C)nc2cc(C(N)=O)cc(OC3COC3)c21`, for which the ΔTm in [3] turned out to be 5.5 °C; in the experiment listed under Homo sapiens [4], 5.5 °C; in the experiment filed under Homo sapiens [1], 6 °C; in experiment [11], 4.5 °C; in the experiment filed under Homo sapiens [7], 5 °C. Also, the IC50 in experiment [5] was 3.66 µM; in [10] it was 3.16 µM; in experiment [6] it was 2.78 µM; in experiment [8], 3.82 µM; in experiment [9] it was 3.75 µM.

Regarding `N#Cc1ccn(-c2ccc(C(=O)Nc3cc(F)c(Cl)cc3C(=O)O)nn2)c1`, the shift in melting temperature (ΔTm) in the experiment listed under Homo sapiens [1] amounted to 1.5 °C. Moreover, the midpoint of the response in experiment [2], the EC50, lay at 42.2 µM.

As for `N#Cc1ccn(-c2ccc(C(=O)Nc3cc(Cl)c(F)cc3C(=O)O)nn2)c1`, the ΔTm in the experiment listed under Homo sapiens [1] turned out to be 6.5 °C. The compound also came in with an EC50 in experiment [2] of 5.17 µM.

On to `N#Cc1ccn(-c2ccc(C(=O)Nc3cc(Cl)c(Cl)cc3C(=O)O)nn2)c1`, for which the ΔTm in experiment [3] worked out at 6.5 °C; in the experiment filed under Homo sapiens [4], 7.5 °C; in the experiment filed under Homo sapiens [1], 7.5 °C; in experiment [11] it was 6 °C; in the experiment filed under Homo sapiens [7], 13.5 °C. Also, the concentration for half-maximal inhibition (IC50) in experiment [5] stood at 0.76 µM; in experiment [10], 2.42 µM; in experiment [6], 2.77 µM; in experiment [8], 2.56 µM; in [9], 4.58 µM. This compound also gave an EC50 in experiment [2] of 2.99 µM.

As to `N#Cc1ccn(-c2ccc(C(=O)Nc3cc(F)c(F)cc3C(=O)O)nn2)c1`, the ΔTm in the experiment listed under Homo sapiens [1] came to 3.5 °C.

As for `N#Cc1ccn(-c2ccc(C(=O)Nc3cc(Br)c(Cl)cc3C(=O)O)nn2)c1`, the ΔTm turned out to be 7 °C in experiment [3]; 7.5 °C in the experiment listed under Homo sapiens [4]; 8.5 °C in the experiment listed under Homo sapiens [1]; 6.5 °C in experiment [11]; 13.5 °C in the experiment filed under Homo sapiens [7]. Also, the IC50 in [5] came out at 0.7 µM; in [10] it was 1.98 µM; in experiment [6], 3.58 µM; in experiment [8], 2.03 µM; in [9], 4.36 µM. This compound yielded an EC50 in experiment [2] of 2.53 µM.

Consider `COc1cc(C(=O)O)c(NC(=O)c2ccc(-n3ccc(C#N)c3)nn2)cc1F`, for which, in the experiment listed under Homo sapiens [1], the ΔTm was determined as 0 °C. The compound further registered an EC50 in experiment [2] of 44.3 µM.
